Patent US20210348164A1, “ENDOGENOUS CYTOPLASMIC ALU COMPLEMENTARY DNA IN AGE-RELATED MACULAR DEGENERATION” (University of Virginia Patent Foundation, priority 2018, published 2021)

Tests used:
[1] = system: L1 ORF2p-facilitated Alu RNA-induced RPE degeneration; assay: Alu RNA-induced RPE degeneration in L1 ORF2-expressing Oryzomys palustris; type: in vivo; conditions: high dose (500 μmol)
Procedure: Assessment of RPE degeneration. Subretinal injections were performed as previously described (Kaneko et al., 2011; Tarallo et al., 2012; Kerur et al., 2013; Fowler et al., 2014; Kim et al., 2014). Seven days after subretinal injection, RPE health was assessed by fundus photography and immunofluorescence staining of zonula occludens-1 (ZO-1) on RPE flat mounts (whole mount of posterior eye cup containing RPE and choroid layers). Mouse RPE/choroid flat mounts were fixed with 2% paraformaldehyde, stained with rabbit polyclonal antibodies against mouse ZO-1 (1:100; Invitrogen Corp. Carlsbad, Calif., United States of America) and visualized with Alexa-594 (Invitrogen Corp.). […]
Quantification of RPE degeneration. Quantification of RPE degeneration was performed using two methodologies (binary assignment and cellular morphometry) as described previously (Kerur et al., 2018): Binary assignment (healthy versus unhealthy; Kerur et al., 2013; Fowler et al., 2014; Kim et al., 2014; Kerur et al., 2018) was independently performed by two blinded raters (inter-rater agreement=99.7%; Pearson r2=0.986, P<0.0001; Fleiss x=0.993, P<0.0001). […]

[2] = system: L1 ORF2 reverse transcriptase activity; assay: Alu cDNA formation in Oryzomys RPE cells with enforced L1 ORF2 expression (Alu-specific qPCR of cytoplasmic fractions); type: cell-based, rat L1 ORF2 in Oryzomys palustris RPE cells; conditions: high-dose
Procedure: Subretinal and intravitreous injections. Subretinal injections (1 μl for mice, 3 μl for rat) or intravitreous injections (0.5 μl for mice, 2 μl for rat) in mice or rat were performed using a 35-gauge needle (Ito Co. Fuji, Japan). In vivo transfection of Alu RNA or mutant Alu RNA (3.6-300 ng per eye); Alu complementary DNA (cDNA; 0.0036-90 ng per eye); Alu reverse sequence cDNA (3.6-90 ng per eye); or 7SL cDNA (3.6-90 ng per eye) was performed using 10% NEUROPORTER™ transfection reagent (Genlantis, San Diego, Calif., United States of America) as previously described (Kaneko et al., 2011; Tarallo et al., 2012). 3TC, TM-3TC, Cpep-3TC, Cpep, PA-4 3TC, EFV, DLV, or NVP (50 μM/1 μl or 500 μM/1 μl) were administered by intravitreous injection (Mandal et al., 2011; Nasrolahi et al., 2013). […]
Alu cDNA detection by real-time PCR. […] Then samples were directly amplified by real-time quantitative PCR (7900 HT Fast Real-Time PCR system, Applied Biosystems, Foster City, Calif., United States of America) with Power SYBR Green Master Mix. […] The copy number of Alu cDNA was calculated using standard curves that were obtained using serial dilutions of the plasmids containing an Alu Y sequence. […]

SMILES | Alu RNA-induced RPE degeneration [1] | Formation of Alu cDNA following Alu RNA transfection [2]
CC(C)Nc1cccnc1N1CCN(C(=O)c2cc3cc(NS(C)(=O)=O)ccc3[nH]2)CC1 [DLV, delavirdine] | blocked | 
O=C1Nc2ccc(Cl)cc2[C@@](C#CC2CC2)(C(F)(F)F)O1 [EFV, efavirenz] |  | inhibited
